c1ccc(-n2c3ccccc3c3ccccc32)cc1
solubility (mole fraction)
Conditions | 283.15 K | 288.15 K | 293.15 K | 298.15 K | 303.15 K | 308.15 K | 313.15 K | 318.15 K | 323.15 K
in dimethyl carbonate | 0.054 | 0.0631 | 0.0771 | 0.0967 | 0.113 | 0.145 | 0.175 | 0.232 | 0.294
in ethyl acetate | 0.0902 | 0.109 | 0.125 | 0.14 | 0.162 | 0.197 | 0.238 | 0.286 | 0.337
in ethyl lactate | 0.0336 | 0.0362 | 0.0422 | 0.0502 | 0.0617 | 0.0731 | 0.0916 | 0.111 | 0.139
in isobutanol | 0.00379 | 0.00416 | 0.00494 | 0.00582 | 0.00684 | 0.00814 | 0.00922 | 0.0109 | 0.0133
in isobutyl acetate | 0.114 | 0.132 | 0.151 | 0.177 | 0.197 | 0.235 | 0.271 | 0.32 | 0.38
in isopentanol | 0.00614 | 0.00721 | 0.00852 | 0.0101 | 0.0125 | 0.0154 | 0.0201 | 0.0253 | 0.0339
in isopropyl acetate | 0.0729 | 0.0842 | 0.0983 | 0.111 | 0.133 | 0.163 | 0.198 | 0.238 | 0.291
in methyl acetate | 0.0727 | 0.0874 | 0.103 | 0.128 | 0.161 | 0.199 | 0.237 | 0.277 | 0.354
in n-butyl acetate | 0.113 | 0.129 | 0.146 | 0.167 | 0.186 | 0.225 | 0.26 | 0.306 | 0.355
in n-pentanol | 0.0091 | 0.0106 | 0.0122 | 0.0147 | 0.0173 | 0.0212 | 0.0252 | 0.0309 | 0.0417
in n-propyl acetate | 0.0761 | 0.0873 | 0.101 | 0.119 | 0.139 | 0.16 | 0.194 | 0.231 | 0.278
in sec-butanol | 0.00405 | 0.00482 | 0.00607 | 0.00774 | 0.00939 | 0.0119 | 0.0148 | 0.0202 | 0.0278

Source: BigSolDB 2.1
